Experimental data taken from patent US11220491B2, “Photoprotective compositions containing Malassezia-derived compounds and/or chemical analogs thereof” (Versicolor Technologies, LLC, priority 2018, dated 2022).
Entries after “also recorded” stand apart in the source; their conditions may differ. Read-outs that look alike come from different tables or passages of the source.

Columns and labels:
MelanoDerm™ Skin Model [1] = assay: MelanoDerm Study 2, melanin assay (Example 19); assay type: cell-based, human; settings: 500 μM, 7-day period
Description: The study also evaluated the potential dermal irritation induced by each test article as measured by the conversion of MTT by MelanoDerm™ tissues after repeated exposures to the test articles, over the 7 day treatment period.
The test articles, Malassezin (CV-8684), Compound B (CV-8877), Compound E (AB12508), Compound H (AB12509), an unknown composition, Compound A5 (CV-8819), and 052 (AB12976), were prepared by diluting the stock concentrations with EPI-100-LLMM to final concentrations of 200 μM and 500 μM. The test article, Compound I (CV-8686), was prepared by diluting the stock concentration to 500 μM. All of the dilutions were vortexed for at least 1 minute, and then heated in a water bath at 37°±1° C. for 15 minutes. The dilutions were then vortexed again for at least 1 minute prior to being dosed on the tissues. The test article and solvent control, DMSO, was prepared as a 0.5% (v/v) dilution in EPI-100-LLMM. The test article dilution was vortexed for at least 1 minute and then again for at least 1 minute prior to being applied onto the tissues. […]
The raw absorbance data were captured. The OD490 value of each melanin standard was determined. […] The corrected OD490 value of each melanin standard concentration was determined by subtracting the OD490 value of the blank well from the OD490 value of the melanin standard concentration. […]

[2] = target: T1, arylhydrocarbon receptor (AhR) (Homo sapiens, UniProt P35869); assay: HepG2-AhR-Luciferase assay; settings: EC50 (uM), 24 hours of treatment
T1 sequence (P35869 11-848): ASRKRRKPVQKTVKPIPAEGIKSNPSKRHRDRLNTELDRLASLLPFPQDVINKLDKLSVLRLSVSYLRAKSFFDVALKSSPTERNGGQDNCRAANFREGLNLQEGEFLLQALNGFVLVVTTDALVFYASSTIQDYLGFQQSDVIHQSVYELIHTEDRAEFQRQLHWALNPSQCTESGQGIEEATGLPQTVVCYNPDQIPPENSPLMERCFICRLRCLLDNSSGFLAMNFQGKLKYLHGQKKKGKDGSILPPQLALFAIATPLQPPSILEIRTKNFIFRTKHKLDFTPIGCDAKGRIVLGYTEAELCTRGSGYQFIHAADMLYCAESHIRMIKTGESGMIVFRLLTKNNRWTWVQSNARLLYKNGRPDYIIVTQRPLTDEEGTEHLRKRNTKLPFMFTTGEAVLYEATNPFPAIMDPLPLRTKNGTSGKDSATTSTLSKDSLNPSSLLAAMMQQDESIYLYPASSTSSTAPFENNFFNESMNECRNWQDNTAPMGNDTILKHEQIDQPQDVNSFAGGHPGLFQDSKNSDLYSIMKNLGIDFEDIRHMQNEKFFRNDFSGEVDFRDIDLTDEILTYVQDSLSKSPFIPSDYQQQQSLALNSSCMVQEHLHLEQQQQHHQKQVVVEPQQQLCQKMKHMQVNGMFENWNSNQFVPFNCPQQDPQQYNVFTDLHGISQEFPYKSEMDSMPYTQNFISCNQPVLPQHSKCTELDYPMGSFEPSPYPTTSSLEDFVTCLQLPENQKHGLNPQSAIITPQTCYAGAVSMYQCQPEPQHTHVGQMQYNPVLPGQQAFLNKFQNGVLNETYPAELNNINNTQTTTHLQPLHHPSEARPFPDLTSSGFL
Description: HepG2-AhR-Luc cells were purchased from Pharmaron, One-Glo Luciferase assay system was purchased from Promega. DMEM was purchased from Hyclone, and penicillin/streptomycin was purchased from Solabio.
Culture media for stably transfected HepG2 cells was prepared by supplementing DMEM with high glucose and L-glutamine, as well as 10% FBS.
HepG2-AhR-Luc cells were cultured in T-75 flasks at 37° C., 5% CO2, and 95% relative humidity. Cells were allowed to reach 80-90% confluence before detachment and splitting.
Cultivated cells were rinsed with 5 mL PBS. PBS was aspirated away, 1.5 mL trypsin was added to the flask, and cells were incubated at 37° C. for approximately 5 minutes or until the cells detached and floated. Trypsin was inactivated by adding excess serum-containing media.
The cell suspension was transferred to a conical tube and centrifuged at 120 g for 10 minutes to pellet the cells. Cells were resuspended in seeding media at a proper density. 40 μL of cells were transferred to a 384-well culture plate (5×10^3 cells/well). Plates were placed in the incubator at 37° C. for 24 hours.
Afterward, stock solutions of test compounds and omeprazole positive control were prepared. Compound solutions were transferred into the assay plate using Echo550. The plate was then placed back into the incubator for compound treatment.
Later, after 24 hours of treatment, the plate was removed from the incubator and allowed to cool at ambient temperature. 30 μL One-Glo reagent equal to that of the culture medium was added in each well. Cells were allowed to lyse for at least 3 minutes, and then measured in a luminometer.
Dose responses were graphed using the non-linear regression analysis in XLfit and EC50 values were also calculated.

MelanoDerm™ Skin Model [3] = assay: MelanoDerm assay, pigmentation of tissues (Example 12); assay type: cell-based, human; settings: day 7; 200 μM and 50 μM
Description: The MelanoDerm™ Skin Model will be exposed to the test article for a total of 7 days. […] (Berridge et al., 1996).
Ten and 25 microliters, respectively, of each test article will be applied to each tissue. Twenty five microliters of the positive and negative controls, respectively, will be applied to each tissue.
The definitive assay will include a negative control and a positive control. The MelanoDerm™ tissues designated to the assay negative control will be treated with 25 μL of sterile, deionized water. Twenty five microliters of 1% Kojic acid (prepared in sterile, deionized water and filtered at the time of preparation) will be used to dose the tissues designated to the assay positive control. The 1% Kojic acid will be stored in a tube covered with aluminum foil until used within 2 hours of preparation. The negative and positive control exposure times will be identical to those used for the test articles.
The exact procedures used to collect images of the tissues will be specified in the study workbook and report.
The trial will be conducted over a 7-day timeframe.
The exact procedures used to collect images of the tissues will be specified in the study workbook and report. Then, the viability of the tissues will be determined by MTT reduction as indicated below.

B16F1 cells = assay: Annexin V assay (Example 16); assay type: cell-based; settings: 100 uM
Description: (§1) Cells were harvested and the cell number was determined using a Countess Cell Counter. The cells were diluted with culture medium to the desired density.
(§2) Test compounds were dissolved in DMSO to 30 mM stock. […] After the indicated incubation time, the plates were removed from the incubator for detection.
(§3) For the Annexin V assay, plates were removed from the incubator and culture media was removed. […] Plates were read using ImageXpress Nano.

MeWo cells [4] = assay: Annexin V assay (Example 16); assay type: cell-based; settings: 100 uM
Description: as §1, §2, §3

WM115 cells [5] = assay: Annexin V assay (Example 16); assay type: cell-based; settings: 100 uM
Description: as §1, §2, §3

[6] = system: Caspase 3/7 in MeWo cells; assay: Caspase-Glo 3/7 assay (Example 16); assay type: cell-based; settings: 100 uM
Description: as §1, §2
(§4) Caspase-Glo 3/7 reagents also were thawed and equilibrated to room temperature before the experiment.

[7] = system: Caspase 3/7 in WM115 cells; assay: Caspase-Glo 3/7 assay (Example 16); assay type: cell-based; settings: 100 uM
Description: as §1, §2, §4

[8] = system: UV-induced erythema of the subject's skin; assay: In vivo photoprotection proof of concept, UVB irradiation of treated skin sites (Example 38); design: species or system human
Text: The Malassezin 1% formulation used in this study contained the following ingredients: Water (aqua)—65.939%; Dimethyl isosorbide—20.000%; Olive Oil Glycereth-8 Esters—3.000%; Glycerin—2.991%; Coconut Alkanes—2.700%; Hydroxyethyl Acrylate/Sodium Acryloyldimethyl Taurate Copolymer—1.700%; Malassezin—1.000%; Pentylene Glycol—1.000%; Phenoxyethanol—0.640%; Coco-Caprylate/Caprate—0.300%; Caprylyl Glycol—0.200%; Chlorphenesin—0.160%; Sorbitan Isostearate—0.140%; Tocopherol—0.100%; Polysorbate 60-0.080%; and Disodium EDTA—0.050%.
A Skin Type IV […] was included in this Proof of Concept study.
A template of 6 squares was placed on the lower left back (1.5 cm×1.5 cm) of the test subject.
Twenty-four hours after irradiation, the subject returned for MED assessment.
A second right lower square was treated twice daily from day 4 to day 7, and a third medial square for one application on day 7. The product vehicle was applied for 7 days twice daily on the left back. The subject returned to the research center for irradiation on day 7. Each test site was irradiated with 120 mJ of UVB exposure. The subject returned in 24 hours for assessment of phototoxicity/photoprotection.
The subject continued the experiment, receiving Malassezin 1% for a total of 14 days. […]

[9] = system: primary human melanocytes; settings: cited from earlier work
[10] = target: T1, arylhydrocarbon receptor (AhR); design: HepG2 cells stably transfected with an AhR-responsive luciferase reporter gene plasmid; host or cells: HepG2-AhR-Luc (HepG2 stably transfected with an AhR-responsive luciferase reporter plasmid); settings: cited from earlier work
MeWo cells [11] = assay: Preliminary annexin V-FITC assay (Example 7); assay type: cell-based; settings: 6-hour treatment, preliminary screen
Description: (§5) MeWo (ATCC® HTB-65™) and WM115 (ATCC® CRL-1675) cells were purchased from ATCC (Manassas, Va.) and maintained in the following: for MeWo:DMEM supplemented with 10% FBS; for WM115: RPMI 1640 supplemented with 10% FBS (10% FBS, 1% stabilized antibiotic anti-mycotic solution).
(§6) During the first set of studies, both MeWo and WM115 cells were treated with test compounds at 10 doses starting from 100 μM with 3-fold dilution. Staurosporine was used as positive control. After 6-hour treatment, cell apoptosis was assessed using an annexin V assay. The test compounds evaluated were CV-8684, CV-8685, CV-8686, CV-8687, and CV-8688.
(§7) For cell seeding, cells were harvested and the cell number was determined using Countess® cell counter. Cells were then diluted with culture medium to the desired density. 40 μL of cell suspension per well was added to the required number of wells in a 384-well plate (Corning 3712—clear bottom plate). The final cell density was 6,000 cells/well. After plating, the plates were incubated at 37° C., and 5% CO2 overnight.
(§8) For preparation of compound source plate, each test compound was dissolved in DMSO to 10 mM stock. 3-fold serial dilution was performed using an EVO200™ liquid handler (TECAN) to generate ten concentrations of test compound. 0.1% DMSO was employed as vehicle (negative) control. The compound source plate was then spun at room temperature at 1,000 RPM for 1 minute and agitated using a plate shaker for 2 minutes.
(§9) For compound treatment, 40 nL of compound were transferred from the compound source plate to the 384-well culture plate using liquid handler Echo550 (LabCyte Inc.). After 6-hour incubation, the plates were removed from the incubator for detection.
(§10) For the preliminary annexin V assay, the plates were removed from the incubator and allowed to equilibrate at room temperature for 15 minutes. Culture media was then removed. 20 μL of pre-mixed annexin V-FITC and Hoechst33342 dye working solution were added to each well. The cells were then incubated at room temperature for 20 minutes. […] Afterward, the plate was read using an Acumen eX3 plate reader. The relative activity was calculated according to the following formula: Activity (%)=100%×(CountAnnexin V/CountTotal cell), and EC50 was calculated using GraphPad Prism (v. 5.01).

WM115 cells [12] = assay: Preliminary annexin V-FITC assay (Example 7); assay type: cell-based; settings: 6-hour treatment, preliminary screen
Description: as §5, §6, §7, §8, §9, §10

[13] = CellTiter-Glo cell viability assay (Example 9); assay type: cell-based; settings: human; after 24-hour treatment; read-out: inhibition of cell viability
Description: (§11) CellTiter-Glo® 2.0 assay was purchased from Promega. Cell seeding, preparation of the compound source plate, and exposure of cells to test compounds were performed as described in Example 8.
(§12) CellTiter-Glo® reagents were thawed and equilibrated to room temperature before the experiment. 40 μL of CellTiter-Glo® reagent was then added to each well for detection (at 1:1 ratio to culture medium). The plates were then incubated at room temperature for 30 minutes and read using EnSpire (PerkinElmer) plate reader. The remaining activity was calculated according to the following formula: Remaining Activity (%)=100%×(Lumsample−Lumbkg)/(Lumvehicle−Lumbkg).

[14] = CellTiter-Glo cell viability assay (Example 9); assay type: cell-based; settings: human; after 24-hour treatment; read-out: inhibition of cell viability; remark: listed apart in the source
Description: as §11, §12

MeWo cells [15] = assay: Cell morphology after treatment (Example 6); assay type: cell-based; settings: 100 μM, 6 hours
WM115 cells [16] = assay: Cell morphology after treatment (Example 6); assay type: cell-based; settings: 100 μM, 6 hours
yeast model = settings: cited from earlier work

O=Cc1c(C(c2c[nH]c3ccccc23)C2CC2)[nH]c2ccccc12 (stereo not shown) [AB12508] showed a melanin concentration (MelanoDerm™ Skin Model [1]) of 25.26 µg/mL, an EC50 ([2]; Table 1) of 15.4 µM and an EC50 ([2]; Table 2) of 14.2 µM.
COC(=O)c1c(C(C)c2c[nH]c3ccccc23)[nH]c2ccccc12 (stereo not shown) [Compound B (CV-8877)] gave a melanin concentration (MelanoDerm™ Skin Model [1]) of 25.99 µg/mL and an EC50 ([2]; Table 2) of 13.8 µM.
With O=Cc1c(Cc2c[nH]c3ccccc23)[nH]c2ccccc12 [Malassezin, malassezin] the pigmentation of tissues (MelanoDerm™ Skin Model [3]) was “reduced pigmentation”, the “cell death (Annexin V staining)” value (B16F1 cells) was “induced cell death” and the “cell death (Annexin V staining)” value (MeWo cells [4]) was “induced cell death”. For the same compound, the “cell death (Annexin V staining)” value (WM115 cells [5]) was “induced cell death”, the “Caspase 3/7 activation” value [6] was “activated Caspase 3/7” and the “Caspase 3/7 activation” value [7] was “activated Caspase 3/7”. For the same compound, the “UV protection, conclusion of the study” value [8] was “UV-protective properties”, the apoptosis induction [9] was “induces apoptosis” and the EC50 ([2]; Table 2) was 13.4 µM. The AhR agonism [10] was “known agonist; also recorded: aryl hydrocarbon receptor agonist”.
In the case of CN[C@@H]1C[C@H]2O[C@@](C)([C@@H]1OC)n1c3ccccc3c3c4c(c5c6ccccc6n2c5c31)C(=O)NC4 [Staurosporine, reference compound], the “annexin V staining” value (MeWo cells [11]) is reported as “greatly increased annexin V staining”, the “annexin V staining” value (WM115 cells [12]) is reported as “greatly increased annexin V staining” and the cytotoxicity at 24 h [13] is reported as 100%. For the same compound, the cytotoxicity at 24 h [14] was 100%, the cell morphology (MeWo cells [15]) was “significantly affected” and the cell morphology (WM115 cells [16]) was “significantly affected”.
In the case of O=C1OC(c2c[nH]c3ccccc23)=C(c2c[nH]c3ccccc23)C1=O [pityrialactone, Pityrialactone], the UV protective properties (yeast model) is given as “confirmed”.
